Results on 9 compounds are retold here after patent publication US6458817B1, “Substituted arylsulfides, arylsulfoxides and arylsulfones as beta-3 adrenergic receptor agonists” (Wyeth, priority 2000, dated 2002).

Data set [1] addresses T1, human β3 adrenergic receptor (Homo sapiens, UniProt P13945).
T1 construct: Full length β3 AR clones (402 amino acids) containing the last 6 amino acids of hβ3—AR are prepared; expressed in transfected cells; host or cells: CHO cells
In words: cAMP accumulation (SPA) in CHO cells transfected with human β3 adrenergic receptor. Type of data set: cell-based. As to conditions: for EC50: CHO cells expressing human β3-AR, cAMP by SPA, 30 min incubation, 10^-9M to 10^-5M; for IA(β3): maximal response relative to isoproterenol at 10^-5M (IA=% activity compound/% activity isoproterenol). As for the experimental part:
The ability of compounds of this invention to treat or inhibit disorders related to insulin resistance or hyperglycemia was established with representative compounds of this invention in the following standard pharmacological test procedures, which measured the binding selectivity to the β1, β2, and β3 adrenergic receptors. Binding to the receptors was measured in Chinese Hamster ovary (CHO) cells that were transfected with adrenergic receptors. The following briefly summarizes the procedures used and results obtained.
Cloning of Human β3-AR Genomic DNA: cDNA was constructed by ligating four polymerase chain reaction (PCR) products using the following primers: an ATG-Narl fragment, sense primer 5′-[…]3′ and anti-sense primer 5′[…]3′; a Narl-Accl fragment, 5′[…]3′ as sense and 5′[…]3′ as anti-sense primer; an Accli-Styl fragment, sense primer 5′[…]3′ and anti-sense primer 5′[…]3′ and a Styl-TAG fragment, with sense primer 5′[…]3′ and anti-sense primer 5′[…]3′. The corresponding primer sequences are described in Mantzoros, C. S., et. al., Diabetes 45: 909-914 (1996). The four fragments are ligated into a pUC 18 plasmid (Gibco-BRL) and sequenced. Full length β3 AR clones (402 amino acids) containing the last 6 amino acids of hβ3—AR are prepared with the β3-βARpcDNA3 from ATTC.
Binding Procedure: Clones expressing receptor levels of 70 to 110 fmoles/mg protein were used in the test procedures. CHO cells were grown in 24-well tissue culture plates in Dulbecco's Modified Eagle Media with 10% fetal bovine serum, MEM non-essential amino acids, Penicillin-Streptompycin and Geneticin. On the day of test procedure, growth medium was replaced with preincubation media (Dulbecco's Modified Eagle Media and incubated for 30 minutes at 37° C. Preincubation medium was replaced with 0.2 ml treatment medium containing DMEM media containing 250 μM IBMX (isobutyl-1-methylxantine) plus 1 mM ascorbic acid with test compound dissolved in DMSO. Test compounds were tested over a concentration range of 10^−9M to 10^−5M for β3 cells and 10^−8 to 10^−4M for β1 and β2 transfected cells. Isoproterenol (10^−5M) was used as an internal standard for comparison of activity. Cells were incubated at 37° C. on a rocker for 30 min with the β3 cells and 15 min for β1 and β2 cells. Incubation was stopped with the addition of 0.2N HCl and neutralized with 2.5N NaOH. The plates, containing the cells and neutralized media, were stored at −20 degrees celsius until ready to test for cAMP using the SPA test kit (Amersham).
Data Analysis and Results: Data collected from the SPA test procedure were analyzed as per cent of the maximal isoproterenol response at 10^−5M. Activity curves were plotted using the SAS statistical and graphics software. EC50 values were generated for each compound and the maximal response (IA) developed for each compound is compared to the maximal response of isoproternol at 10^−5M from the following formula:
IA=% activity compound/% activity isoproterenol
(In general: Cyclic AMP is a second messenger, typically raised through Gs and lowered through Gi signalling.)

T1 sequence (P13945 whole entry): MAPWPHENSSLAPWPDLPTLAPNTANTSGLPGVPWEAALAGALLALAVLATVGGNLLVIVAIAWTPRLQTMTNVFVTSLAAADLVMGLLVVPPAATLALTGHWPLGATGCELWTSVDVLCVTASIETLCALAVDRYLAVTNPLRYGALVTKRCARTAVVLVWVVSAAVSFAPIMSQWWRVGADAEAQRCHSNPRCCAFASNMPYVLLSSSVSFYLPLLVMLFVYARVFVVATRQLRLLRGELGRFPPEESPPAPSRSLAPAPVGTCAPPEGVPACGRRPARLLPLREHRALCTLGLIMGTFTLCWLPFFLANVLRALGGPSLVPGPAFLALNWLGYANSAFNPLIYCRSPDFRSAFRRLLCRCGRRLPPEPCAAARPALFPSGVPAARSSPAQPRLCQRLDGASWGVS

On to `CC(C)(C)c1nc(CSc2ccc(CCNC[C@H](O)COc3ccc(O)cc3)cc2)no1` [Example 32, (2S)-4-(3-{2-[4-(5-tert-Butyl-[1,2,4]oxadiazol-3-ylmethylsulfanyl) -phenyl]-ethylamino}-2-hydroxy-propoxy)-phenol], for which, in data set [1], the EC50 – broadly, the concentration that produces a half-maximal response – came to 330 nM and the “IA(β3)” value is reported as 1.2.

For the compound `[O-][S+](Cc1noc(Cc2ccccc2)n1)c1ccc(CCNC[C@H](O)COc2ccc(O)cc2)cc1` (stereo partly drawn) [Example 24, 4-({(2S)-3-[(4-{[(5-benzyl-1,2,4-oxadiazol-3-yl)methyl]sulfinyl}phenethyl)amino]-2-hydroxypropyl}oxy)phenol], the melting point – broadly, the temperature of the solid-liquid transition – fell in the range of 51 to 57 °C. In data set [1], the response was half-maximal at 431 nM (EC50) and the “IA(β3)” value turned out to be 0.62.

On to `CC(C)(C)c1nc(CS(=O)(=O)c2ccc(CCNC[C@H](O)COc3ccc(O)cc3)cc2)no1` [Example 15, 4-[((2S)-3-{[4-({[5-(tert-butyl)-1,2,4-oxadiazol-3-yl]methyl}sulfonyl)phenethyl]amino}-2-hydroxypropyl)oxy]phenol], for which, in data set [1], the EC50 turned out to be 28 nM and the “IA(β3)” value amounted to 0.92.

Regarding `COc1ccc(-c2nc(CS(=O)(=O)c3ccc(CCNC[C@H](O)COc4ccc(O)c(C)c4)cc3)no2)cc1` [Example 19, 4-[((2S)-2-hydroxy-3-{[4-({[5-(4-methoxyphenyl)-1,2,4-oxadiazol-3-yl]methyl}sulfonyl)phenethyl]amino}propyl)oxy]-2-methylphenol], in data set [1], it took 68 nM to reach a half-maximal effect (EC50) and the “IA(β3)” value was 0.95.

Compound `Cc1noc(C)c1-c1nc(CS(=O)(=O)c2ccc(CCNC[C@H](O)COc3ccc(O)cc3)cc2)no1` [Example 12, 4-[((2S)-3-{[4-({[5-(3,5-dimethyl-4-isoxazolyl)-1,2,4-oxadiazol-3-yl]methyl}sulfonyl)phenethyl]amino}-2-hydroxypropyl)oxy]phenol] came in with an EC50 in data set [1] of 70 nM.

`O=S(=O)(Cc1noc(-c2ccccc2)n1)c1ccc(CCNCC(O)c2ccc(OC(F)(F)F)cc2)cc1` (stereo not drawn) [Example 8, 2-[(4{[(5-phenyl-1,2,4-oxadiazol-3-yl)methyl]sulfonyl}phenethyl)amino]-1-[4-(trifluoromethoxy)phenyl]-1-ethanol]: the melting point lay in the range of 125 to 127 °C.

In the case of `COc1ccc(-c2nc(CS(=O)(=O)c3ccc(CCNC[C@H](O)COc4ccc(O)cc4)cc3)no2)cc1` [Example 29, 4[((2S)-2-hydroxy-3-{[4-({[5-(4-methoxyphenyl)-1,2,4-oxadiazol-3-yl]methyl}sulfonyl)phenethyl]amino}propyl)oxy]phenol], in data set [1], the response was half-maximal at 33 nM (EC50) and the “IA(β3)” value amounted to 1.1.

With `Cc1ccc(-c2noc(CSc3ccc(CCNC[C@H](O)COc4cccc5[nH]nnc45)cc3)n2)cc1` [Example 33, (2S)-1-(1H-1,2,3-benzotriazol-4-yloxy)-3-{[4-({[3-(4-methylphenyl)-1,2,4-oxadiazol-5-yl]methyl}sulfanyl)phenethyl]amino}-2-propanol], the melting point was 110 °C. Moreover, in data set [1], the response was half-maximal at 789 nM (EC50) and the “IA(β3)” value was determined as 0.44.

In the case of `COc1ccc(-c2nc(CS(=O)(=O)c3ccc(CCNC[C@H](O)c4ccc(O)c(NS(C)(=O)=O)c4)cc3)no2)cc1` [Example 27, N-[2-hydroxy-5-((1R)-1-hydroxy-2-{[4-({[5-(4-methoxyphenyl)-1,2,4-oxadiazol-3-yl]methyl}sulfonyl)phenethyl]amino}ethyl)phenyl]methanesulfonamide], in data set [1], the EC50 is 25 nM and the “IA(β3)” value turned out to be 1.
